Measurements published in US7795179B2, “Substituted azole compounds and its preparation and use thereof” (Shenyang Research Institute of Chemical Industry, priority 2004, dated 2010).

Tests used:
Assay type in all cases: in vivo
cucumber downy mildew = experiment: Fungicidal activity on potted plants, cucumber downy mildew; conditions: spray on potted plant, inoculation after 24 hours
wheat powdery mildew = experiment: Fungicidal activity on potted plants, wheat powdery mildew; conditions: spray on potted plant, inoculation after 24 hours
cucumber grey mold = experiment: Fungicidal activity on potted plants, cucumber grey mold; conditions: 500 ppm, spray on potted plant, inoculation after 24 hours
green peach aphid = experiment: Insecticidal activity, Potter spraying tower, green peach aphid; conditions: 150 ppm, mortality 2 to 3 days after treatment
Protocol: (§1) Determination of insecticidal and acaricidal activities against plant diseases of selected compounds were carried out by following procedure:
(§2) Technical samples were dissolved in acetone and diluted to required concentration with water containing 0.1% of tween 80. Armyworm, diamondback moth and green peach aphid were treated with Potter spraying tower, and culex mosquito was treated with dipping culture method. Mortality investigation of test insects was carried out 2 to 3 days after treatment.

armyworm = experiment: Insecticidal activity, Potter spraying tower, armyworm; conditions: 150 ppm, mortality 2 to 3 days after treatment
Protocol: as §1, §2

diamondback moth = experiment: Insecticidal activity, Potter spraying tower, diamondback moth; conditions: 150 ppm, mortality 2 to 3 days after treatment
Protocol: as §1, §2

culex mosquito = experiment: Insecticidal activity, dipping culture method, culex mosquito; conditions: 150 ppm, mortality 2 to 3 days after treatment
Protocol: as §1, §2

apple ring rot = experiment: Fungicidal activity on potted plants, apple ring rot; conditions: 100 ppm
Protocol: Determination of fungicidal activities against plant diseases of selected compounds were carried out by following procedure:
Technical samples were dissolved in DMF and diluted to required concentration wtih water containing 0.1% tween 80. Test solution was sprayed onto potted plant. Pathogen inoculation was carried out after 24 hours then plants were hold in growth chambers containing constant temperature and moisture for effect. When untreated plant was under desirable disease severity (after 1 week approximately), assessment were carried out by visual observation.

rape sclerotiniose = experiment: Fungicidal activity on potted plants, rape sclerotiniose; conditions: 100 ppm
tomato late blight = conditions: 100 ppm
[1] = test system: apple alternaria leaf spot; experiment: Fungicidal activity on potted plants, apple alternaria leaf spot; conditions: 100 ppm
wheat head blight = conditions: 100 ppm
grape white rot = experiment: Fungicidal activity on potted plants, grape white rot; conditions: 100 ppm
grape downy mildew = experiment: Fungicidal activity on potted plants, grape downy mildew; conditions: 100 ppm
tomato early blight = experiment: Fungicidal activity on potted plants, tomato early blight; conditions: 100 ppm
[2] = test system: corn southern leaf blight; experiment: Fungicidal activity on potted plants, corn southern leaf blight; conditions: 100 ppm

SMILES	control against cucumber downy mildew (cucumber downy mildew; 500 ppm) [%]	control against wheat powdery mildew (wheat powdery mildew; 500 ppm) [%]	control against cucumber downy mildew (cucumber downy mildew; 50 ppm) [%]	control against wheat powdery mildew (wheat powdery mildew; 50 ppm) [%]	also measured
CO/C=C(/C(=O)OC)c1ccccc1COc1cc(-c2ccccc2)no1 [Compound 83]	100	100	–	–	–
CO/C=C(/C(=O)OC)c1ccccc1COc1c(Cl)c(-c2ccc(-c3ccc(Cl)cc3)cc2)nn1C [Compound 179]	–	100	–	–	–
CO/C=C(/C(=O)OC)c1ccccc1COc1cc(-c2ccccc2)nn1C [Compound 1]	100	100	100	100	–
CO/C=C(/C(=O)OC)c1ccccc1COc1cc(-c2ccc(OCC(F)(F)F)cc2)nn1C [Compound 74]	100	100	–	–	–
CO/C=C(/C(=O)OC)c1ccccc1COc1cc(-c2ccc(Cl)cc2)no1 [Compound 84]	100	100	100	100	–
CO/C=C(/C(=O)OC)c1ccccc1COc1cc(-c2ccc(Cl)nc2)no1 [Compound 151]	–	100	–	–	control against cucumber grey mold (cucumber grey mold): 100%
CO/N=C(/C(=O)OC)c1ccccc1COc1cc(-c2ccc(Cl)cc2)nn1C [Compound 248]	100	100	–	–	–
CO/N=C(/C(=O)OC)c1ccccc1COc1cc(-c2ccccc2)nn1C [Compound 247]	–	100	–	–	control against cucumber grey mold (cucumber grey mold): 100%
CO/C=C(/C(=O)OC)c1ccccc1COc1cc(-c2ccc(OC)c(OC)c2)nn1C [Compound 12]	100	100	–	–	–
CO/C=C(/C(=O)OC)c1ccccc1COc1cc(-c2ccc([N+](=O)[O-])cc2)no1 [Compound 86]	100	100	100	100	–
CO/C=C(/C(=O)OC)c1ccccc1COc1cc(-c2ccc(C(F)(F)F)cc2)nn1C [Compound 5]	100	100	100	100	–
CNC(=O)/C(=N/OC)c1ccccc1COc1cc(-c2ccc(Cl)cc2)nn1C(C)C [Compound 435]	–	100	–	–	–
CO/C=C(/C(=O)OC)c1ccccc1COc1cc(-c2cc(F)c(Cl)cc2Cl)nn1C [Compound 11]	100	100	–	–	–
CO/C=C(/C(=O)OC)c1ccccc1COc1c(C)c(-c2ccc(Cl)cc2)nn1C [Compound 30]	100	100	100	100	control of aphids (green peach aphid): 100%; control of armyworm (armyworm): 100%; control of diamond backmoth (diamondback moth): 100%; control of culex mosquitoes (culex mosquito): 100%
CO/C=C(/C(=O)OC)c1ccccc1COc1cc(-c2ccc(Cl)nc2)nn1C [Compound 69]	100	100	100	100	–
CO/C=C(/C(=O)OC)c1ccccc1COc1cc(-c2ccc(Cl)cc2)nn1C(C)C [Compound 190]	100	100	–	–	–
CO/C=C(/C(=O)OC)c1ccccc1COc1cc(-c2ccc(Oc3ccccc3)cc2)nn1C [Compound 174]	–	100	–	–	–
CO/C=C(/C(=O)OC)c1ccccc1COc1cc(-c2ccc(SC)cc2)nn1C [Compound 165]	–	100	–	–	–
CO/C=C(/C(=O)OC)c1ccccc1COc1cc(-c2ccc(Cl)cc2)nn1C [Compound 2]	100	100	100	100	control against apple ring rot (apple ring rot): more than 80%; control against rape sclerotiniose (rape sclerotiniose): more than 80%; control against tomato late blight (tomato late blight): more than 80%; control against apple alternaria leaf spot [1]: more than 80%; control against wheat head blight (wheat head blight): more than 80%; control against grape white rot (grape white rot): more than 80%; control against grape downy mildew (grape downy mildew): more than 80%; control against tomato early blight (tomato early blight): more than 80%; control against corn southern leaf blight [2]: more than 80%
CNC(=O)/C(=N/OC)c1ccccc1COc1cc(-c2ccc(Cl)cc2)nn1C [Compound 356]	–	100	–	–	–
CO/N=C(/C(=O)OC)c1ccccc1COc1cc(-c2ccc(Cl)nc2)nn1C [Compound 287]	100	100	100	100	–
CO/C=C(/C(=O)OC)c1ccccc1COc1cc(-c2ccc([N+](=O)[O-])cc2)nn1C [Compound 4]	100	100	100	100	–
